Read-outs that look alike come from different tables or passages of the source.
Assays:
[1] = target: glucocorticoid receptors (Homo sapiens, UniProt P04150)
[2] = Piperacillin population pharmacokinetics in critically ill children; format: in vivo; details: median (range), one compartment model, n = 50 children
Source text: Pharmacokinetics were described using the non-linear mixed effect modelling software MONOLIX.

[3] = Residual serum concentrations of piperacillin and amoxicillin and neurological disorders (HPLC MS); format: in vivo, critically ill patients
Experimental: Patients and methods: This study was carried out retrospectively during the period 01.01.2015 to 08.02.2017, in patients hospitalized in the medical ICU-CHU Rouen with PTM.

[4] = system: Stenotrophomonas maltophilia VAP; experiment: Risk factors for Stenotrophomonas maltophilia VAP, matched analysis; format: in vivo, patients; details: exposure during the week before VAP; 93 cases, 380 controls
Experimental: Patients and methods: We conducted a retrospective analysis of prospectively collected data in a multicenter database in France. VAP was determined as microbiologically documented pneumonia occurring after at least two days of mechanical ventilation. All patients admitted from 2000 to 2015 presenting at least one episode of VAP were included. SM-VAP were compared with VAP due to other micro-organisms (VAP-other). To assess risk factors and day-30 (D30) mortality, SM-VAP were matched (1 − n) with VAP-other based on center, time from ICU admission to VAP occurrence, and SAPS II score.

[5] = system: Enterococcus faecalis; experiment: Resistance in nosocomial urinary tract infection: Enterococcus faecalis (P-219); details: January 2010 - June 2014
[6] = system: acutely poisoned ventilated patients; details: human, in vivo
[7] = system: Acinetobacter baumannii; format: cell-based; details: blood culture isolates 2012–2016
Experimental: (§1) Patients and methods: From January 2012 to December 2016, a total of 2,182 non repetitive strains were isolated from blood cultures. Incubation of blood culture vials and the detection of bacterial growth were performed by the BACTEC system. All Isolated organisms were identified on the basis of standard microbiological techniques. Antibiotic susceptibility testing was carried out by the agar disk diffusion method, and susceptibility results were interpreted using clinical breakpoints according to CA-SFM 2013 and 2015 guidelines. Data were analyzed using the SIR-system. Minimum inhibitory concentrations of colistin, imipenem and vancomycin were determined using the Etest® method (bioMérieux).

[8] = system: Klebsiella pneumoniae
[9] = system: Pseudomonas aeruginosa
[10] = system: Pseudomonas; details: January 2010 - June 2014
[11] = Beta-lactam plasma concentrations in children with severe sepsis or septic shock (HPLC); details: current standard dosing
[12] = system: tramadol-overdosed rats; experiment: Antidotes for tramadol overdose: seizures, plethysmography, sedation, EEG; details: for tramadol-induced respiratory depression / ventilation: whole-body plethysmography
[13] = system: carbapenemase-producing Enterobacteriaceae; experiment: Antibiotic susceptibility of Enterobacteriaceae with decreased susceptibility to carbapenems; format: cell-based
[14] = system: Escherichia-coli; experiment: Resistance in nosocomial urinary tract infection: Escherichia-coli (P-219); details: January 2010 - June 2014
[15] = system: Staphylococcus aureus; format: cell-based; details: blood culture isolates 2012–2016
Experimental: as §1

[16] = system: cardiogenic shock patients; experiment: OPTIMA CC double-blind randomized trial, epinephrine vs norepinephrine in cardiogenic shock after myocardial infarction; format: in vivo
Source text: Patients and methods: Multicenter, double-blind, randomized trial in 8 french ICU. Cardiogenic shock patients due to myocardial infarction treated by PCI were randomized to receive epinephrine or norepinephrine to maintain MAP at 70 mmHg. Dobutamine was introduced at the physician discretion according to a combination of parameters—echocardiographic parameters, cardiac index, lactate clearance, SVO2 and Swan-Ganz derived parameters.

[17] = Norepinephrine in pediatric septic shock, mortality (P-169); format: in vivo, human (children)
[18] = system: E.coli lipopolysaccharide-challenged rats; experiment: Sodium lactate vs 0.9% NaCl in rat endotoxin shock: fluid balance and capillary leak; format: in vivo
Experimental: Patients and methods: The sixteen sedated, mechanically ventilated rats were challenged with intravenous infusion of E.coli lipopolysaccharide (10 mg/kg). Two groups of eight animals were randomised to receive a continous perfusion (5 mL/kg/h) of sodium lactate 11.2% (treatment group) or 0.9% NaCl (control group). In order to inject the same caloric load in the two groups, a 4.35 mL/kg/h of either water of 10% dextrose solution were perfused. Mean arterial pressure, heart rate, urine ouput were measured over a 210 min period. An echocardiography was then performed and Evans Blue (1%, 30 mg/kg) was intravenously injected 30 min before sacrifice. Organs were withdrawn and organs wet dry ratio and Evans blue dye extravasation were measured.

[19] = Hemodynamic and metabolic effects of molar sodium lactate infusion in critically ill patients (P-135); format: in vivo, human
Experimental: Patients and methods: This was a retrospective study performed in a large University Hospital. All patients receiving the molecule were included in the analysis. Indication for sodium lactate, dose, and modality of administration were collected. We also collected clinical and biological variables before sodium lactate infusion, after 6 h (H6), and after 24 h (H24). An analysis of the evolution of these variables at H6 and H24 was performed.

[20] = system: Acinetobacter Baumanii; experiment: Resistance of nosocomial infection isolates: Acinetobacter Baumanii (P-222); format: cell-based; details: n = 39 isolates, 2016
Source text: Patients and methods: This was a retrospective study conducted within a 22-bed medical ICU of a Tunisian teaching hospital (301 beds) carried from January 1st to December 31, 2016. We recorded demographic patients’ characteristics which ICU’s stay was complicated with at least one NI. Then we described pathogens and microbiological specificities of NI.

[21] = system: Staphylococcus aureus; experiment: Resistance in nosocomial urinary tract infection: Staphylococcus aureus (P-219); details: January 2010 - June 2014
[22] = not given; remark: listed apart in the source
[23] = system: patients after out-of-hospital cardiac arrest
[24] = system: diaphragm contraction and workload; experiment: Diaphragmatic electromyography after diazepam / buprenorphine; format: in vivo, Sprague–Dawley rat; details: 30 mg kg BUP intraperitoneally, 20 mg kg DZP subcutaneously
Experimental: Patients and methods: 11C-BUP was administered intravenously, 30 mg kg unlabeled BUP intraperitoneally and 20 mg kg DZP subcutaneously.

[25] = system: Farnesoid X receptor (FXR); experiment: LPS sepsis in CKD mice treated with sevelamer (P-138); format: in vivo, mice (C57BL6 J)
Experimental: Patients and methods: Sepsis was provoked by the injection of 0.5 mg kg of LPS 6 weeks after the creation of CKD. The CKD was created by unilateral nephrectomy associated with contralateral thermocauterisation. The mice (C57BL6 J) were randomly assigned to one of the following groups—sham placebo, CKD placebo, sham LPS or CKD LPS. A fifth group of CKD LPS mice received a treatment with sevelamer (a bile acid sequestrant) during 6 weeks. Survival of the animals, serum biochemistry and molecular biology in the kidney were performed after sacrifice.

Chain of glucocorticoid receptors (P04150 whole entry): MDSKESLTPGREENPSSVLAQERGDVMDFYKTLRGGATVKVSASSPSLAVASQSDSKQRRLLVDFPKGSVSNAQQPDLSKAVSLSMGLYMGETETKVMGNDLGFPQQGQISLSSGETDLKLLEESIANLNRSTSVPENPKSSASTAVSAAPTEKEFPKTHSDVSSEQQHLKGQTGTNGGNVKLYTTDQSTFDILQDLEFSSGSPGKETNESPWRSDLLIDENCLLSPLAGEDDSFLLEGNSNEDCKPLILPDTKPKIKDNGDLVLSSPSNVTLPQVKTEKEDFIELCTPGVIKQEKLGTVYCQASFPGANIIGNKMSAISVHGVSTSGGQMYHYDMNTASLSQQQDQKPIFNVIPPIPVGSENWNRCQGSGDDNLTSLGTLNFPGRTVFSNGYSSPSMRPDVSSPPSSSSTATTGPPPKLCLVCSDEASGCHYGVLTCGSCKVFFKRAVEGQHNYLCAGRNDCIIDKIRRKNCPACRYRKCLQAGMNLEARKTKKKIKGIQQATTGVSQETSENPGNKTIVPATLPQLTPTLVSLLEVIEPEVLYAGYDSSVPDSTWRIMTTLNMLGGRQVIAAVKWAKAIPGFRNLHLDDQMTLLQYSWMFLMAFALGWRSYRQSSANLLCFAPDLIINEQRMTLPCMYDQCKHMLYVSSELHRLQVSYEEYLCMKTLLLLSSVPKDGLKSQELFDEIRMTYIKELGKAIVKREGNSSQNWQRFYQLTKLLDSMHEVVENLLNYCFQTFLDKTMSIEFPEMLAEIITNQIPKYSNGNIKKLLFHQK

C[C@H]1C[C@H]2[C@@H]3CCC4=CC(=O)C=C[C@]4(C)[C@@]3(F)[C@@H](O)C[C@]2(C)[C@@]1(O)C(=O)CO [Betamethasone]
corticoresistance (mean blanching score < 2) ([1]; non-septic critically ill): 56%
corticoresistance (mean blanching score < 2) ([1]; septic shock, 10 µl cream on 3 cm^2, read at 24 h): 78%

CCN1CCN(C(=O)N[C@@H](C(=O)N[C@@H]2C(=O)N3[C@@H]2SC(C)(C)[C@@H]3C(=O)O)c2ccccc2)C(=O)C1=O [Piperacillin]
clearance ([2]; MONOLIX, intermittent infusions): 3 (0.71–10) L h^−1
volume of distribution [2]: 3.8 (0.72–25.8) L
residual concentration associated with occurrence of neurological disorders ([3]; 80% specificity and sensitivity): greater than 40 mg L^−1
residual serum concentration, patients with neurological disorders or wakefulness delays ([3]; HPLC MS): 98.2 ± 16.8 mg L^−1
residual serum concentration, patients without neurological disorders ([3]; HPLC MS): 21.6 ± 4.0 mg L^−1

C[C@]1(Cn2ccnn2)[C@H](C(=O)O)N2C(=O)C[C@H]2S1(=O)=O [Tazobactam]
OR for SM-VAP, univariate analysis [4]: 1.75 [1.04; 2.94]

CC1(C)S[C@@H]2[C@H](NC(=O)[C@H](N)c3ccccc3)C(=O)N2[C@H]1C(=O)O [ampicillin]
resistance [5]: no resistance

CN1[C@@H]2CC[C@H]1C[C@@H](OC(=O)C(CO)c1ccccc1)C2 (some centres unmarked) [atropine]
OR, independent risk factor for delirium [6]: 2.333

CC(C)(O/N=C(\C(=O)N[C@@H]1C(=O)N2C(C(=O)[O-])=C(C[n+]3ccccc3)CS[C@H]12)c1csc(N)n1)C(=O)O [ceftazidime]
resistance rate [7]: Eighty per cent
resistance rate [8]: 70%
resistance rate [9]: 39%
resistant [10]: 61%
patients with insufficient plasma concentration [11]: 0%

O=C(O)c1cn(C2CC2)c2cc(N3CCNCC3)c(F)cc2c1=O [ciprofloxacin]
OR for SM-VAP, univariate analysis [4]: 1.77 [0.92; 3.39]

CN1C(=O)CN=C(c2ccccc2)c2cc(Cl)ccc21 [diazepam]
sedation depth ([12]; rat, in vivo): significantly deepened rat sedation
tramadol-induced respiratory depression / ventilation [12]: without improving ventilation

C[C@@H](O)[C@H]1C(=O)N2C(C(=O)O)=C(S[C@@H]3CN[C@H](C(=O)Nc4cccc(C(=O)O)c4)C3)[C@H](C)[C@H]12 [ertapenem]
strains with MIC > 1 mg l ([13]; 39 selected bacteria): 95%
resistance [14]: without resistance

CC(=O)NC[C@H]1CN(c2ccc(N3CCOCC3)c(F)c2)C(=O)O1 [linezolid]
resistance rate [15]: 1%

C=CCN1CC[C@]23c4c5ccc(O)c4O[C@H]2C(=O)CC[C@@]3(O)[C@H]1C5 [naloxone]
tramadol-induced respiratory depression / ventilation [12]: reversed tramadol-induced respiratory depression

NC[C@H](O)c1ccc(O)c(O)c1 [norepinephrine]
arterial pH and lactate ([16]; H2 to H24): arterial pH increased and lactate level decreased
ECMO use ([16]; in vivo): 3%
cardiac double product (surrogate of myocardial oxygen consumption) ([16]; in vivo): did not change
heart rate evolution ([16]; in vivo): did not change
incidence of arrhythmia ([16]; in vivo): 33%
mortality ([16]; in vivo): 37%
incidence of refractory shock ([16]; titrated to MAP 70 mmHg, epinephrine n = 27, norepinephrine n = 30): 7%
OR of maximal dose for mortality ([17]; 95% confidence interval 1.1–2.0, p = 0.02): 1.4
global mortality rate ([17]; 191 children with septic shock treated with norepinephrine): 28.8%
mortality rate in preterm neonates ([17]; in vivo): 35.3%
mortality ([17]; when dose reached 0.75 µg kg per minute): 46.2%

CC(O)C(=O)[O-].[Na+] (centres unmarked) [sodium lactate]
hemodynamics parameters ([18]; after sodium lactate infusion): not significantly enhanced
fluid balance, organs wet dry ratio and Evans blue dye extravasation ([18]; sodium lactate 11.2% 5 mL/kg/h vs 0.9% NaCl, LPS 10 mg/kg, 210 min): not significantly improved
diuresis ([19]; 6 h period following initiation, p = 0.02): increase
mean arterial pressure ([19]; at H6 (p = 0.009) and H24 (p = 0.003), 250 ml infusion, 104 patients): significant increase
pH, bicarbonate, base excess, and sodium ([19]; at H6 and H24, all p < 0.0001): increase
patients with plasma sodium >= 150 mmol l and pH >= 7.50 ([19]; at H24): 5%
catecholamine dose ([19]; at H24, p = 0.002): decrease
heart rate ([19]; at H24, p = 0.05): decrease

CN(C)c1cc(NC(=O)CNC(C)(C)C)c(O)c2c1C[C@H]1C[C@H]3[C@H](N(C)C)C(O)=C(C(N)=O)C(=O)[C@@]3(O)C(O)=C1C2=O [tigecycline]
susceptibility ([13]; colistin excepting with Proteus): 63%
resistance rate [15]: 15%

CN(C)c1cc(NC(=O)CNC(C)(C)C)c(O)c2c1C[C@H]1C[C@H]3[C@H](N(C)C)C(=O)C(C(N)=O)=C(O)[C@@]3(O)C(=O)C1=C2O [tygecycline]
resistance [20]: 100%

CN[C@H](CC(C)C)C(=O)N[C@H]1C(=O)N[C@@H](CC(N)=O)C(=O)N[C@H]2C(=O)N[C@H]3C(=O)N[C@H](C(=O)N[C@H](C(=O)O)c4cc(O)cc(O)c4-c4cc3ccc4O)[C@H](O)c3ccc(c(Cl)c3)Oc3cc2cc(c3O[C@@H]2O[C@H](CO)[C@@H](O)[C@H](O)[C@H]2O[C@H]2C[C@](C)(N)[C@H](O)[C@H](C)O2)Oc2ccc(cc2Cl)[C@H]1O [vancomycin]
resistance [5]: no resistance
resistance [21]: without any resistance

Amoxicillin clavulanic acid [AMC]
efficiency (community-acquired peritonitis): 77%
impact when AMC was inadequate (in vivo): no impact on morbidity and mortality

Cyclosporine A [CsA]
IL-1, IL-6, IL-8 and TNFα levels versus Control group ([22]; D0 and D1, p = ns): did not significantly differ
level of IL 10 at admission versus Control group ([22]; p < 0.05): significantly lower

amoxicillin-clavulanic acid
HR for early VAP vs placebo ([23]; IC 95% [0.315 + 0.946], p = 0.031): 0.546
incidence of early VAP (< 7 days) ([23]; IV 1 g 200 mg three times a day for 2 days, n = 99): 19.2%
Day 28 mortality ([23]; n = 99): 41.4%
late VAP (> 7 days), number of patients ([23]; n = 99): 4

buprenorphine
diaphragm contraction (first 60 min AUC) [24]: significantly increased
diaphragm workload (first 60 min AUC) [24]: significantly increased

sevelamer
RNA expression of FXR in the kidney versus CKD LPS group ([25]; sevelamer 6 weeks before LPS): increased the RNA expression of FXR
plasmatic concentration of Il1b, TNFa versus CKD LPS group ([25]; sevelamer 6 weeks before LPS): lower plasmatic concentration
survival of CKD LPS animals ([25]; sevelamer 6 weeks before LPS 0.5 mg kg): improved the survival

— publication PMC5799093, “Proceedings of Réanimation 2018, the French Intensive Care Society International Congress” (Annals of Intensive Care, 2018)
